In publication PMC5598323 (Toxicology Reports, 2015):
pIC50: −log10 of the molar value. Like-named read-outs stand apart in the source and are kept apart here.

Experiments:
CYP3A4 = CYP3A4 (Homo sapiens, UniProt P08684); assay: CYP3A4 testosterone 6β-hydroxylase assay in human liver microsomes; format: in vitro ADME; conditions: for IC50: IC50 values CYP3A4 (in μg/ml, in brackets), HLM, μM bound converted to μg/ml; for pIC50: IC50 values CYP3A4, HLM, testosterone 100 μM, tested 1–50 μM; for inhibition of CYP3A4 in HLM (in words): even upto 50 μM concentrations
Sequence of CYP3A4 (P08684 whole entry): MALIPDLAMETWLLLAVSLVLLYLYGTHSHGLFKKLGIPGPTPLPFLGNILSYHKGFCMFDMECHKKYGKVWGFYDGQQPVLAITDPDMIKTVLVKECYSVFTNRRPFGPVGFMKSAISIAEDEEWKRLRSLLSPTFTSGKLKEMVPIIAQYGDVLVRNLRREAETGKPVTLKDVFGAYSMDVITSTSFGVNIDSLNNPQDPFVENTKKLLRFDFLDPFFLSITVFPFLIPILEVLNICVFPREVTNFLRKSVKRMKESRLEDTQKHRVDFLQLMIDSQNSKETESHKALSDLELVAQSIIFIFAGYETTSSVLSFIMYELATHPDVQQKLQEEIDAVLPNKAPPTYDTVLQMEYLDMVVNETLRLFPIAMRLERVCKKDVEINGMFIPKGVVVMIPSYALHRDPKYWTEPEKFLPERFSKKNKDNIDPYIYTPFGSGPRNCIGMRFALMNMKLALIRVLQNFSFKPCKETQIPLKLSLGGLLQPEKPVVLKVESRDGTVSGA

CYP1A enzyme [1] = conditions: human liver microsomes; cited from earlier work
CYP1A enzyme [2] = conditions: rat liver microsomes; cited from earlier work
CYP2C9 = CYP2C9 (Homo sapiens, UniProt P11712); assay: CYP2C9 diclofenac 4′-hydroxylation assay in human liver microsomes; conditions: for IC50: IC50 values CYP2C9 (in μg/ml, in brackets), HLM, μM bound converted to μg/ml; for pIC50: IC50 values CYP2C9, HLM, diclofenac 50 μM, tested 1–50 μM; for inhibition of CYP2C9 in HLM (in words): even upto 50 μM concentrations
Sequence of CYP2C9 (P11712 whole entry): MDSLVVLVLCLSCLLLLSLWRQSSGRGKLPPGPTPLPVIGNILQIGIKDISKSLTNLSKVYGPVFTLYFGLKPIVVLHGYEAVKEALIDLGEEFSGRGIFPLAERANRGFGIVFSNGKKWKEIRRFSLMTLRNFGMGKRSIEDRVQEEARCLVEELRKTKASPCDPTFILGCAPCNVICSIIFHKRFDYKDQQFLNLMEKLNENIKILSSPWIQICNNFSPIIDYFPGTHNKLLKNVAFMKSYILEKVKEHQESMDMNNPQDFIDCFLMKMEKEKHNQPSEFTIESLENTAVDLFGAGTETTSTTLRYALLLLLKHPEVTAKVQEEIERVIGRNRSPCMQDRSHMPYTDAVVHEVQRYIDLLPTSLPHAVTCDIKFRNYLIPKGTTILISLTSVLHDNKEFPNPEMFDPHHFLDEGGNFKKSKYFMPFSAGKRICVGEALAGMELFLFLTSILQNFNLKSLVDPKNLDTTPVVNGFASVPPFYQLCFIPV

CYP2D6 = CYP2D6 (Homo sapiens, UniProt P10635); assay: CYP2D6 dextromethorphan O-demethylation assay in human liver microsomes; format: in vitro ADME; conditions: for IC50: IC50 values CYP2D6 (in μg/ml, in brackets), HLM, μM bound converted to μg/ml; for pIC50: IC50 values CYP2D6, HLM, dextromethorphan 8 μM, tested 1–50 μM; for inhibition of CYP2D6 in HLM (in words): even upto 50 μM concentrations
Sequence of CYP2D6 (P10635 whole entry): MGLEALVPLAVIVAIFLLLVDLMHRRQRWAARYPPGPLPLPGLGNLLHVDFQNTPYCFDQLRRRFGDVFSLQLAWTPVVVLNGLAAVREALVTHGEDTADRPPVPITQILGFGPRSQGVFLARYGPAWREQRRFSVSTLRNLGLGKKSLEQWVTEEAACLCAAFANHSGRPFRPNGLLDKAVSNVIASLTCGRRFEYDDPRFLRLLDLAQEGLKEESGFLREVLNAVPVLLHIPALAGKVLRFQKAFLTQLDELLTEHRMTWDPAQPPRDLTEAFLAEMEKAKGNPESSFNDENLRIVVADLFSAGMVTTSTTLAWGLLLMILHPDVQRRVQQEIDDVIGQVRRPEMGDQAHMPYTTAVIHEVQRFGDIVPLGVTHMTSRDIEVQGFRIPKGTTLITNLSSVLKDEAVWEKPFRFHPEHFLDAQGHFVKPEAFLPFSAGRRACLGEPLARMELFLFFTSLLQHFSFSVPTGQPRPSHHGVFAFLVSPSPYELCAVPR

[3] = stated in discussion, no experiment and reference not given, cited from earlier work

IC50 (CYP3A4) [µM]	pIC50 (CYP3A4)	inhibition of CYP3A4 in HLM (in words) (CYP3A4)	IC50 (CYP2C9) [µM]	pIC50 (CYP2C9)	inhibition of CYP2C9 in HLM (in words) (CYP2C9)	IC50 (CYP2D6) [µM]	pIC50 (CYP2D6)	inhibition of CYP2D6 in HLM (in words) (CYP2D6)	SMILES	inhibition of CYP1A enzyme (in words) (CYP1A enzyme [1])	inhibition of CYP1A enzyme (in words) (CYP1A enzyme [2])	solubility in hexane ([3]; hexane)	solubility in methanol [3]	solubility in water ([3]; water)
> 49.5	< 4.30	no significant inhibition	> 49.5	< 4.30	no significant inhibition	> 49.5	< 4.30	no significant inhibition	CC1(C)CC[C@]2(C(=O)O)CC[C@]3(C)C(=CC[C@@H]4[C@@]5(C)C[C@@H](O)[C@H](O)[C@@](C)(CO)[C@@H]5CC[C@]43C)[C@@H]2[C@@H]1O [Arjungenin, arjungenin]	did not show inhibition	did not show inhibition	insoluble	freely soluble	–
> 51.2	< 4.30	no significant inhibition	> 51.2	< 4.30	no significant inhibition	> 51.2	< 4.30	no significant inhibition	CC1(C)CC[C@]2(C(=O)O)CC[C@]3(C)C(=CC[C@@H]4[C@@]5(C)C[C@@H](O)[C@H](O)C(C)(C)[C@@H]5CC[C@]43C)[C@@H]2[C@@H]1O [Arjunic acid]	did not show inhibition	did not show inhibition	–	freely soluble	insoluble
